Source: patent publication US8435978B2, “Substituted sulfonamide compounds” (Gruenenthal GmbH, priority 2006, dated 2013)
Where a name gives a salt, the structure may show the parent alone.

What was measured:
human B1R receptor = molecular target: T1, human B1R receptor (Homo sapiens, UniProt P46663); assay: Functional study on the bradykinin receptor 1 (B1R), FLIPR Ca2+ assay, hB1R cells; type: cell-based; details: CHO-K1, test substance 10 μM, agonist Lys-Des-Arg9-bradykinin 0.5 nM, % inhibition compared with the maximum achievable inhibition, read-out: B1R Antagonism, human [10 μM] % Inhibition
T1 construct: host or cells: CHO K1 cells (Chinese hamster ovary), stably transfected
T1 sequence (P46663 1-353): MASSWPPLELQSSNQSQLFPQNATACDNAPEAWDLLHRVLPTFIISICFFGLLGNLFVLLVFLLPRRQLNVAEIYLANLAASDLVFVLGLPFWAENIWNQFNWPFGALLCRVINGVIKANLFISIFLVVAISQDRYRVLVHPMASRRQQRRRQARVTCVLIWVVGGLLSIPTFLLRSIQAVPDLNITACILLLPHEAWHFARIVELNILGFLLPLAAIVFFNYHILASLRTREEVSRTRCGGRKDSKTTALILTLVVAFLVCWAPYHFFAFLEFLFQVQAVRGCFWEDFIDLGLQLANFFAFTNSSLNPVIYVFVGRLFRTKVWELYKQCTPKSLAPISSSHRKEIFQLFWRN
Summary of the method: (§1)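 Cells were dye-loaded 60 min at 37 °C, equilibrated 20 min at room temperature, then given 10 μM compound. Ten minutes later the species-matched agonist was added (0.5 nM Lys-Des-Arg9-bradykinin, human; 100 nM Des-Arg9-bradykinin, rat) and Ca2+ influx suppression expressed as % of maximum inhibition.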

B1R receptor of the rat = molecular target: T2, B1R receptor of the rat (Rattus norvegicus, UniProt P97583); assay: Functional study on the bradykinin receptor 1 (B1R), FLIPR Ca2+ assay, rB1R cells; type: cell-based; details: CHO-K1, test substance 10 μM, agonist Des-Arg9-bradykinin 100 nM, % inhibition compared with the maximum achievable inhibition, read-out: B1R Antagonism, rat [10 μM] % Inhibition
T2 construct: host or cells: CHO K1 cells (Chinese hamster ovary), stably transfected
T2 sequence (P97583 1-337): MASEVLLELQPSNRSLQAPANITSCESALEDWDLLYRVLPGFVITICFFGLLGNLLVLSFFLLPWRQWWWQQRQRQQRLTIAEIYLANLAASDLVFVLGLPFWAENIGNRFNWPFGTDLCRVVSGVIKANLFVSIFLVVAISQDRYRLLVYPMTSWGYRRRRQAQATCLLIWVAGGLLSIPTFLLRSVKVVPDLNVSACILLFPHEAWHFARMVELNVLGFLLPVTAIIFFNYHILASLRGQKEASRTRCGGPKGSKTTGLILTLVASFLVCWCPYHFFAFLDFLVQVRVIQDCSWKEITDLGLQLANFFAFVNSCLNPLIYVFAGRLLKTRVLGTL
Summary of the method: as §1

Compound | inhibition at 10 µM (human B1R receptor) [%] | inhibition at 10 µM (B1R receptor of the rat) [%]
COc1cc(C)c(S(=O)(=O)N2CCCC2COCC(=O)N2CCC(N3CCN(C)CC3)CC2)c(C)c1 (stereo not drawn) [Example 267, 2-((1-(4-methoxy-2,6-dimethylphenylsulfonyl)pyrrolidin-2-yl)methoxy)-1-(4-(4-methylpiperazin-1-yl)piperidin-1-yl)ethanone] | 104 | 95.2
Cc1cc(C)c(S(=O)(=O)N2CCCCC2COCC(=O)Nc2ccc(-n3ccnc3C)cc2)c(C)c1 (stereo not drawn) [Example 87, N-[4-(2-methyl-imidazol-1-yl)-phenyl]-2-[1-(2,4,6-trimethyl-phenylsulfonyl)-piperidin-2-ylmethoxy]-acetamide] | 42.7 | 44.4
O=C(COCC1CCCCN1S(=O)(=O)c1c(Cl)cc(Cl)cc1Cl)NCc1ccncc1 (stereo not drawn) [Example 394, N-(pyridin-4-ylmethyl)-2-((1-(2,4,6-trichlorophenylsulfonyl)piperidin-2-yl)methoxy)acetamide] | 31.5 | 99.1
COc1cc(C)c(S(=O)(=O)N2CCCC2COCC(=O)NC2CCN(Cc3ccccc3)CC2)c(C)c1 (stereo not drawn) [Example 477, N-(1-benzylpiperidin-4-yl)-2-((1-(4-methoxy-2,6-dimethylphenylsulfonyl)pyrrolidin-2-yl)methoxy)acetamide] | 94.5 | 98.8
COc1cc(C)c(S(=O)(=O)N2CCCCC2COCC(=O)N2CCC(c3nc4cc(C)ccc4[nH]3)CC2)c(C)c1 (stereo not drawn) [Example 397, 2-((1-(4-methoxy-2,6-dimethylphenylsulfonyl)piperidin-2-yl)methoxy)-1-(4-(5-methyl-1H-benzo[d]imidazol-2-yl)piperidin-1-yl)ethanone] | 97.2 | 101
COc1cc(C)c(S(=O)(=O)N2CCCC2COCC(=O)N2CCN(c3ccc(F)cc3)CC2)c(C)c1 (stereo not drawn) [Example 307, 1-(4-(4-fluorophenyl)piperazin-1-yl)-2-((1-(4-methoxy-2,6-dimethylphenylsulfonyl)pyrrolidin-2-yl)methoxy)ethanone] | 105 | 98.4
CN1CCC(N2CCN(C(=O)COCC3CCCCN3S(=O)(=O)c3cccc4c(N(C)C)cccc34)CC2)CC1 (stereo not drawn) [Example 158, 2-((1-(5-(dimethylamino)naphthalen-1-ylsulfonyl)piperidin-2-yl)methoxy)-1-(4-(1-methylpiperidin-4-yl)piperazin-1-yl)ethanone dihydrochloride] | 98.5 | 99.3
Cc1ccc(CN2CCN(C(=O)COCC3CCCN3S(=O)(=O)c3c(Cl)cccc3Cl)CC2)cc1 (stereo not drawn) [Example 360, 2-((1-(2,6-dichlorophenylsulfonyl)pyrrolidin-2-yl)methoxy)-1-(4-(4-methylbenzyl)piperazin-1-yl)ethanone] | 96.7 | 103
Cc1cccc(N(Cc2ccccc2)C(=O)COCC2CCCCN2S(=O)(=O)c2cc(Cl)sc2Cl)n1 (stereo not drawn) [Example 515, N-benzyl-2-((1-(2,5-dichlorothiophen-3-ylsulfonyl)piperidin-2-yl)methoxy)-N-(6-methylpyridin-2-yl)acetamide] | 30.9 | 100
CN(C)CCN(Cc1ccccc1)C(=O)COCC1CCCCN1S(=O)(=O)c1c(Cl)cccc1Cl (stereo not drawn) [Example 489, N-benzyl-2-((1-(2,6-dichlorophenylsulfonyl)piperidin-2-yl)methoxy)-N-(2-(dimethylamino)ethyl)acetamide] | 99.3 | 100
COc1cc(C)c(S(=O)(=O)N2CCCC2COCC(=O)NCc2ccc(CN(C)C)cc2)c(C)c1 (stereo not drawn) [Example 35, N-(4-dimethylaminomethyl-benzyl)-2-[1-(4-methoxy-2,6-dimethyl-phenylsulfonyl)-pyrrolidin-2-ylmethoxy]-acetamide] | 79.7 | 99
COc1cc(C)c(S(=O)(=O)N2CCCCC2COCC(=O)NCc2cccc(N3CCCCC3)c2)c(C)c1 (stereo not drawn) [Example 430, 2-((1-(4-methoxy-2,6-dimethylphenylsulfonyl)piperidin-2-yl)methoxy)-N-(3-(piperidin-1-yl)benzyl)acetamide] | 38.6 | 101
COc1cc(C)c(S(=O)(=O)N2CCCCC2COCC(=O)NCc2ccc(N3CCCCC3)cc2)c(C)c1 (stereo not drawn) [Example 14, 2-[1-(4-methoxy-2,6-dimethyl-phenylsulfonyl)-piperidin-2-ylmethoxy]-N-(4-piperidin-1-yl-benzyl)-acetamide] | 97 | 104
COc1cc(C)c(S(=O)(=O)N2CCCC2COCC(=O)NCc2ccc(CN3CCOCC3)cc2)c(C)c1 (stereo not drawn) [Example 55, 2-[1-(4-methoxy-2,6-dimethyl-phenylsulfonyl)-pyrrolidin-2-ylmethoxy]-N-(4-morpholin-4-ylmethyl-benzyl)-acetamide] | 63.2 | 88.8
CC(C)N(CCN1CCN(C(=O)COCC2CCCCN2S(=O)(=O)c2c(Cl)cc(Cl)cc2Cl)CC1)C(C)C (stereo not drawn) [Example 254, 1-(4-(2-(diisopropylamino)ethyl)piperazin-1-yl)-2-((1-(2,4,6-trichlorophenylsulfonyl)piperidin-2-yl)methoxy)ethanone] | 105 | 97.8

Now from value to compound:

inhibition at 10 µM (human B1R receptor) [%] | inhibition at 10 µM (B1R receptor of the rat) [%] | Compound
103 | 86.3 | CN1CCC(N2CCN(C(=O)COCC3CCCCN3S(=O)(=O)c3cccc4cccnc34)CC2)CC1 (stereo not drawn) [Example 175, 1-(4-(1-methylpiperidin-4-yl)piperazin-1-yl)-2-((1-(quinolin-8-ylsulfonyl)piperidin-2-yl)methoxy)ethanone dihydrochloride]
101 | 99.5 | COc1cc(C)c(S(=O)(=O)N2CCCCC2COCC(=O)N2CCN(Cc3ccc(C)cc3)CC2)c(C)c1 (stereo not drawn) [Example 385, 2-((1-(4-methoxy-2,6-dimethylphenylsulfonyl)piperidin-2-yl)methoxy)-1-(4-(4-methylbenzyl)piperazin-1-yl)ethanone]
90.7 | 101 | COc1cc(C)c(S(=O)(=O)N2CCCCC2COCC(=O)N2CC[C@@H](N(C)C)C2)c(C)c1 (stereo partly drawn) [Example 363, 1-((R)-3-(dimethylamino)pyrrolidin-1-yl)-2-((1-(4-methoxy-2,6-dimethylphenylsulfonyl)piperidin-2-yl)methoxy)ethanone]
46.4 | 81.1 | O=C(COCC1CCCCN1S(=O)(=O)c1ccc(Br)cc1)N1CCN(c2ccncc2)CC1 (stereo not drawn) [Example 126, 2-((1-(4-bromophenylsulfonyl)piperidin-2-yl)methoxy)-1-(4-(pyridin-4-yl)piperazin-1-yl)ethanone]
80.8 | 102 | COc1cc(C)c(S(=O)(=O)N2CCCCC2COCC(=O)N2CCC[C@H]2CN2CCCC2)c(C)c1 (stereo partly drawn) [Example 374, 2-((1-(4-methoxy-2,6-dimethylphenylsulfonyl)piperidin-2-yl)methoxy)-1-((S)-2-(pyrrolidin-1-ylmethyl)pyrrolidin-1-yl)ethanone]
85.5 | 81.6 | COc1cc(C)c(S(=O)(=O)N2Cc3ccccc3CC2COCC(=O)N2CCCCC2Cc2cccc(C)n2)c(C)c1C (stereo not drawn) [Example 277, 2-((2-(4-methoxy-2,3,6-trimethylphenylsulfonyl)-1,2,3,4-tetrahydroisoquinolin-3-yl)methoxy)-1-(2-((6-methylpyridin-2-yl)methyl)piperidin-1-yl)ethanone]
92.6 | 21.4 | CN1CCC(N2CCN(C(=O)COCC3CCCCN3S(=O)(=O)c3cccc(C(F)(F)F)c3)CC2)CC1 (stereo not drawn) [Example 22, 1-[4-(1-methyl-piperidin-4-yl)-piperazin-1-yl]-2-[1-(3-trifluoromethyl-phenylsulfonyl)-piperidin-2-ylmethoxy]-ethanone]
99.2 | 97.1 | COc1cc(C)c(S(=O)(=O)N2CCCCC2COCC(=O)N2CCN(c3ncnc4ccsc34)CC2)c(C)c1 (stereo not drawn) [Example 113, 2-((1-(4-methoxy-2,6-dimethylphenylsulfonyl)piperidin-2-yl)methoxy)-1-(4-(thieno[3,2-d]pyrimidin-4-yl)piperazin-1-yl)ethanone]
105 | 101 | COc1cc(OC)cc(N2CCN(C(=O)COCC3CCCCN3S(=O)(=O)c3c(C)cc(OC)cc3C)CC2)c1 (stereo not drawn) [Example 340, 1-(4-(3,5-dimethoxyphenyl)piperazin-1-yl)-2-((1-(4-methoxy-2,6-dimethylphenylsulfonyl)piperidin-2-yl)methoxy)ethanone]
